Measurements from PubChem BioAssay (NCI).
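Cultured in 96-well plates, cells were exposed to test compound for 48 hours across five concentrations. GI50: concentration for 50% inhibition of growth. TGI marks complete inhibition of growth.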 Residues, ends and D or L forms follow the SMILES beside them. *: point of attachment. Cbz = O=C(OCc1ccccc1)*

Experiments:
Assay in all cases: inhibition of tumour cell growth, NCI panel, 48 h
[1] = test system: OVCAR-3 ovarian
[2] = test system: NCI/ADR-RES ovarian
[3] = test system: 786-0 renal
[4] = test system: COLO 205 colon
[5] = test system: OVCAR-5 ovarian
[6] = test system: SNB-19 CNS
[7] = test system: UACC-257 melanoma
[8] = test system: SW-620 colon

Row | SMILES | GI50 [1] [µM] | TGI [1] [µM] | GI50 [2] [µM] | TGI [2] [µM] | GI50 [3] [µM] | TGI [3] [µM] | GI50 [4] [µM] | TGI [4] [µM] | GI50 [5] [µM] | TGI [5] [µM] | GI50 [6] [µM] | TGI [6] [µM] | GI50 [7] [µM] | TGI [7] [µM] | GI50 [8] [µM] | TGI [8] [µM]
1 | Cc1cccc(Cl)c1NC(=O)c1cnc(Nc2cc(N3CCOCC3)cc(S(C)(=O)=O)c2)s1 | 0.476 | > 10 | 9.94 | > 10 | 0.171 | > 5.31 | 0.572 | > 10 | 0.257 | > 10 | > 4.95 | > 10 | > 4.82 | > 10 | > 10 | > 10
2 | CC(C)Cc1ccc(C(C)C(=O)NCc2ccc(Cn3c(=O)sn(CCCI)c3=O)cc2)cc1 (stereo unspecified) | 0.269 | 0.791 | 1.35 | 5.19 | 0.475 | 0.998 | 0.271 | 1.14 | 1.39 | 2.84 | 1.45 | 2.78 | 1.28 | 2.7 | 0.259 | 0.75
3 | COc1cc(/C=C/C(=O)c2c(-c3ccc(F)cc3)nc3sc(C)nn23)cc(OC)c1OC | 2.63 | 7 | 2.57 | 9.91 | 3.31 | 10.6 | 1.98 | 3.77 | 3.46 | 9.92 | 3.24 | 13.1 | 4.18 | 16.5 | 2.02 | 4.51
4 | NC(=O)c1cc(Br)ccc1NC(=O)/C=C/c1ccccc1 | 0.887 | 4.21 | – | – | 3.72 | > 34.8 | 1.23 | > 39.5 | 10.3 | > 100 | 5.36 | > 36.9 | 24.9 | > 100 | 0.986 | > 100
5 | Cc1ccc(OCCOCCOCCOCCOCCOc2ccc(C)n(O)c2=S)c(=S)n1O | 0.0377 | 18.7 | 0.0478 | > 77 | 0.0952 | > 100 | 0.0428 | > 100 | 0.0634 | > 100 | 0.118 | > 100 | 0.0425 | > 66.4 | 0.0544 | > 100
6 | NC(N)=N/N=C/c1c(-c2cccnc2)nc2sc(Cl)cn12 | 15.3 | 30.1 | 52.2 | > 100 | 17 | 46.6 | – | – | 12.7 | 25.3 | – | – | 20.4 | 40.5 | 6.13 | 20.7
7 | COc1ccc2c(c1)C(c1cc(OC)c3c(c1)OCO3)C1=C(COC1=O)N2 (stereo unspecified) | 0.205 | 0.481 | 0.292 | – | 0.469 | > 36 | 0.277 | 0.713 | 0.629 | > 100 | 0.468 | > 100 | – | > 100 | 0.373 | > 100
8 | CCNCCNc1cc(-c2ccc(C(F)(F)F)cc2)c(C#N)c2nc3cc(Cl)c(Cl)cc3n12 | 1.66 | 3.13 | 1.49 | 3.33 | 1.53 | 3.02 | 1.68 | 3.22 | 2.03 | 3.68 | 1.88 | 3.65 | 1.9 | 3.39 | 0.306 | 1.14
9 | Cc1ccccc1C(C(=O)NC1CCCCC1)N(C(=O)CNc1ccc(C#N)cc1)c1cccc(F)c1 (stereo unspecified) | > 63 | > 100 | 26.2 | > 100 | 17.3 | > 67.9 | > 83.2 | > 100 | 46.6 | > 100 | 9.13 | 37.3 | 50 | > 100 | > 100 | > 100
10 | O=C1c2c(Cl)c(Cl)c(Cl)c(Cl)c2C(=O)C2(Cl)CC=CCC12Cl (stereo unspecified) | 2.02 | 3.48 | 3.41 | 13.2 | 2 | 3.62 | 1.52 | 2.89 | 2.51 | 5.74 | 1.64 | 3.01 | 1.53 | 2.95 | 1.49 | 3.08
11 | CC(C)C[C@@H](C=O)NC(=O)[C@H](CC(C)C)NC(=O)[C@H](CC(C)C)NC(=O)OCc1ccccc1 (Cbz-Leu-Leu-Leu-aldehyde) | 0.225 | 0.538 | 3.26 | > 100 | 0.349 | 1.4 | 0.404 | 1.62 | 0.643 | 4.74 | 0.829 | > 100 | 0.251 | 0.628 | 0.355 | 2.07
12 | COc1cc(CCC(=O)NC[C@@H](O)c2ccccc2)ccc1O | > 100 | > 100 | – | – | > 100 | > 100 | – | – | > 100 | > 100 | – | – | > 100 | > 100 | > 100 | > 100
13 | Oc1ccccc1/C=N\NC(=S)N/N=C/c1ccccc1O | 0.451 | 24.6 | 0.543 | > 100 | 3.49 | 20 | 4.23 | 18.9 | 9.38 | > 100 | 2.94 | > 100 | 2.6 | 16.6 | 3.54 | > 100
14 | CN(C)CCS(=O)(=O)Nc1cc(-c2ccc3ncc(C#N)c(Nc4ccc(F)c(Cl)c4)c3c2)cnc1Cl | 0.13 | 0.412 | 2.11 | > 29.3 | 0.307 | 3.61 | 0.188 | 0.439 | 0.303 | 4.9 | 0.248 | 2.94 | 0.273 | 3.51 | 0.263 | 1.43
15 | CNC(=O)c1cccc(C#Cc2cncnc2Nc2ccc(OCc3cccc(F)c3)c(Cl)c2)c1 | 3.82 | 8.03 | 6.94 | > 25 | 6.33 | > 25 | 7.5 | > 18.4 | 7.34 | > 25 | 6.9 | > 25 | 9.72 | > 25 | 7.16 | > 25
16 | C=CC(=O)N1CC[C@H](n2nc(C#Cc3cc(OC)cc(OC)c3)c3c(N)ncnc32)C1 | 4.13 | > 100 | 12.7 | > 100 | 2.24 | > 100 | 15.8 | > 100 | 62.3 | > 100 | 7.66 | > 100 | 10.8 | > 100 | 15 | > 100
17 | COc1ccc(Cn2cc3c(c2-c2cc(OC)c(OC)c(OC)c2)CCc2c(CO)noc2-3)cc1 | 0.312 | 12.9 | 0.294 | > 57 | 0.493 | 24.7 | 0.339 | 4.28 | 0.543 | > 82.3 | 0.43 | 21.4 | 16.5 | 50.2 | 0.381 | > 100
18 | CCCCCCCCCCCCCCCCN(CC)CC | 2.87 | 7.99 | – | – | 1.69 | 3.1 | 2.01 | 3.82 | 1.94 | 4.26 | 3.29 | 13.9 | 1.99 | 4.98 | 2.03 | 3.9
19 | COc1cc2nc3cc([N+](=O)[O-])ccc3c(NCCNCC(C)O)c2cc1OC (stereo unspecified) | 0.482 | 1.74 | 7.42 | 23.6 | 1.23 | 3.6 | 0.368 | 1.57 | 2.61 | 9.41 | 0.436 | 2.74 | 1.63 | 3.67 | 0.431 | 3.09
20 | Cn1c(=O)c(Oc2ccc(F)cc2F)cc2cnc(NC3CCOCC3)nc21 | > 25 | > 25 | > 25 | > 25 | > 25 | > 25 | > 25 | > 25 | > 25 | > 25 | > 25 | > 25 | > 25 | > 25 | > 25 | > 25
21 | COC(=O)CNc1nc(N(C)O)nc(N(C)O)n1 | – | – | 2.86 | > 100 | 3.56 | 66.8 | 3.99 | > 100 | 9.24 | > 100 | 27.3 | > 100 | 11.6 | 80.3 | 5.07 | > 100
22 | C=CC(=O)Nc1cccc(Oc2nc(Nc3ccc(N4CCN(C)CC4)cc3OC)ncc2Cl)c1 | 1.7 | 4.44 | 1.88 | 5.69 | 1.47 | 2.94 | 2.28 | 5.07 | 2.29 | 13 | 3.63 | 16.7 | 1.62 | 3.17 | 1.47 | 2.96
23 | C=C1C(=O)O[C@H]2[C@H]1CC/C(CNC(=O)/C=C/c1ccccc1F)=C\CC[C@@]1(C)O[C@@H]21 | 0.691 | 2.1 | 3.1 | 26.9 | 1.59 | 3.71 | 1.4 | 2.96 | 1.9 | 5.15 | 3.83 | 14.4 | 1.77 | 3.59 | 0.487 | 1.66
24 | C=CCOC(=O)Nc1cccn([C@H](CC(C)C)C(=O)NCCC(C)C)c1=O | 54.5 | > 100 | 57.9 | > 100 | > 100 | > 100 | > 100 | > 100 | > 100 | > 100 | > 100 | > 100 | 66.5 | > 100 | > 100 | > 100
25 | CN(C)Cc1c(C(=O)NCCOc2ccc(C(=O)NO)cc2)oc2ccccc12 | 0.272 | 0.969 | 0.306 | 4.27 | 0.405 | 9.16 | 0.133 | 0.282 | 0.115 | 1.3 | 0.453 | 13.9 | 0.0689 | 0.592 | 0.166 | 0.547
26 | COc1cc2c(c(OC)c1OC)-c1c(c3ccc([N+](=O)[O-])cc3c(=O)n1CCCN)C2=O | 10.7 | 19.1 | 5.49 | 15.6 | 0.799 | 1.51 | 8.72 | > 50 | 1.77 | 6.35 | – | – | 8.22 | 17 | 1.03 | 2.35
27 | Cn1cc(C2=C(c3cn(CCCCCO)c4ccccc34)C(=O)NC2=O)c2ccccc21 | 5.48 | 17.3 | 7.04 | > 22.5 | 5.81 | > 21.5 | 3.89 | 11.4 | 11.8 | > 25 | 8.41 | > 23.2 | 9.48 | > 25 | 3.17 | > 25
28 | COc1ccc(NC(=O)c2ccc(NC3=C(Cl)C(=O)N(Cc4ccccc4)C3=O)cc2)c(OC)c1 | 15.1 | 33.2 | 17.8 | 47.3 | 23.3 | > 100 | 44.4 | > 100 | 49.3 | > 100 | 57.4 | > 100 | 47 | > 100 | 29.2 | > 100
29 | Cc1[nH]nc2ncc(C(=O)N3CCC[C@H]3c3ccc(Cl)cc3)cc12 | 64.2 | > 100 | > 100 | > 100 | 47.7 | > 100 | – | – | > 100 | > 100 | > 100 | > 100 | > 100 | > 100 | 76 | > 100
30 | O=S(=O)(NCCCNc1cc(-c2cn(-c3ccccc3)nc2-c2cccc(O)c2)ccn1)c1ccc(Br)cc1 | 1.66 | 3.61 | 2.33 | 8.19 | 1.5 | 4.29 | 1.65 | 3.4 | 2.12 | 5.55 | 2.98 | 14.7 | – | – | 1.62 | 3.65
